Measurements: patent US11033539B2, “Compounds of formulas (VII), (VIII), (IX), (XI), (XII), (XIII), and (XIV) as muscarinic receptor 4(M4) antagonists for treating neurological diseases” (Neurocrine Biosciences, Inc., priority 2015, dated 2021)

Assays:
[1] = molecular target: human M1 receptor (Homo sapiens (Human), UniProt P11229); test: Radioligand (tritiated N-methylscopolamine) binding assay, M1; details: CHO cell membranes expressing human M1; 1.5 nM tritiated N-methylscopolamine; 90 min, 37° C.; read-out: Ki against M1 receptor (Table 21, M1)
human M1 receptor, sequence (P11229 whole entry): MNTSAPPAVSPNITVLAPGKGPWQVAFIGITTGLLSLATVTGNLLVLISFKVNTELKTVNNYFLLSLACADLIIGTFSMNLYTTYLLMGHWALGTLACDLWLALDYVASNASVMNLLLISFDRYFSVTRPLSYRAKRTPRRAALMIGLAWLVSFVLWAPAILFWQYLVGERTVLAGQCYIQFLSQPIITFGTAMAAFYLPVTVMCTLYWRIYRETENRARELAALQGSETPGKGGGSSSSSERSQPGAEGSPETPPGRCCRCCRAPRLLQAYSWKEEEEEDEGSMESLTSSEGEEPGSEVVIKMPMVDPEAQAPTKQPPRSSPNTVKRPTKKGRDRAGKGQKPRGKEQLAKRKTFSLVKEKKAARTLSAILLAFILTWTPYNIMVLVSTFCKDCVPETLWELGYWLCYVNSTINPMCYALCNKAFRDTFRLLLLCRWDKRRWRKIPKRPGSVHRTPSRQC
Method in brief: (§1)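 Membranes came from recombinant CHO cells expressing human muscarinic subtypes and were incubated with compound and [3H]NMS (1.5 nM) in HEPES/NaCl/MgCl2/EDTA buffer, pH 7.4, at 37° C for 90 min. Twelve-point dose-response (printed 10–[…]). Filter-bound radioactivity was counted and Ki values derived.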

[2] = molecular target: human M2 receptor (Homo sapiens (Human), UniProt P08172); test: Radioligand (tritiated N-methylscopolamine) binding assay, M2; details: CHO cell membranes expressing human M2; 1.5 nM tritiated N-methylscopolamine; 90 min, 37° C.; read-out: Ki against M2 receptor (Table 21, M2)
human M2 receptor, sequence (P08172 whole entry): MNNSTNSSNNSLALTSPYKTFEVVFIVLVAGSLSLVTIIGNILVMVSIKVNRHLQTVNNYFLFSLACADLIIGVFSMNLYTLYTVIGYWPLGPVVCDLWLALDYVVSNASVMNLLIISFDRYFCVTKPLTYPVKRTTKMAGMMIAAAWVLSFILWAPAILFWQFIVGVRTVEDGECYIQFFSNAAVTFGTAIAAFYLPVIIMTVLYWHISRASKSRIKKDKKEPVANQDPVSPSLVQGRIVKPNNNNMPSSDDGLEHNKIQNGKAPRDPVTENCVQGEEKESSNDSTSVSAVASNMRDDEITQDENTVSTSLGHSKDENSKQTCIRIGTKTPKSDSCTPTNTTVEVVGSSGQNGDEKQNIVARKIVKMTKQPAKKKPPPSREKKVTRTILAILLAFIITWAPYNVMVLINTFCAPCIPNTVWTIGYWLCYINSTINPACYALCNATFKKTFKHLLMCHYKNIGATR
Method in brief: as §1

[3] = molecular target: human M3 receptor (Homo sapiens (Human), UniProt P20309); test: Radioligand (tritiated N-methylscopolamine) binding assay, M3; details: CHO cell membranes expressing human M3; 1.5 nM tritiated N-methylscopolamine; 90 min, 37° C.; read-out: Ki against M3 receptor (Table 21, M3)
human M3 receptor, sequence (P20309 whole entry): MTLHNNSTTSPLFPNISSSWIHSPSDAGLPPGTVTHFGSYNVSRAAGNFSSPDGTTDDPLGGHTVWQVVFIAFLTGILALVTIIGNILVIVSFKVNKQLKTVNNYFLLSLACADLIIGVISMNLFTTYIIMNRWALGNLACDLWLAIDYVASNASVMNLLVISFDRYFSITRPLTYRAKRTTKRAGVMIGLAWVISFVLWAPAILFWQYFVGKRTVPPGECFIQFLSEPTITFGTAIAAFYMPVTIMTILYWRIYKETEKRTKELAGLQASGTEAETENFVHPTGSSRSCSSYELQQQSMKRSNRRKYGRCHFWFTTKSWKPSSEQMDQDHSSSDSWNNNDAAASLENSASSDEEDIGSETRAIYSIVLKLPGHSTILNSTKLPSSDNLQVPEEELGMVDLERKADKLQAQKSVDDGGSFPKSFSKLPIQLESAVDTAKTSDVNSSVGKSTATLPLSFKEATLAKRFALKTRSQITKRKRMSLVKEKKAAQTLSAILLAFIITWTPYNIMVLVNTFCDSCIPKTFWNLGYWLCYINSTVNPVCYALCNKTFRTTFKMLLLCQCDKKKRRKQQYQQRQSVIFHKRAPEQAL
Method in brief: as §1

[4] = molecular target: human M5 receptor (Homo sapiens (Human), UniProt P08912); test: Radioligand (tritiated N-methylscopolamine) binding assay, M5; details: CHO cell membranes expressing human M5; 1.5 nM tritiated N-methylscopolamine; 90 min, 37° C.; read-out: Ki against M5 receptor (Table 21, M5)
human M5 receptor, sequence (P08912 whole entry): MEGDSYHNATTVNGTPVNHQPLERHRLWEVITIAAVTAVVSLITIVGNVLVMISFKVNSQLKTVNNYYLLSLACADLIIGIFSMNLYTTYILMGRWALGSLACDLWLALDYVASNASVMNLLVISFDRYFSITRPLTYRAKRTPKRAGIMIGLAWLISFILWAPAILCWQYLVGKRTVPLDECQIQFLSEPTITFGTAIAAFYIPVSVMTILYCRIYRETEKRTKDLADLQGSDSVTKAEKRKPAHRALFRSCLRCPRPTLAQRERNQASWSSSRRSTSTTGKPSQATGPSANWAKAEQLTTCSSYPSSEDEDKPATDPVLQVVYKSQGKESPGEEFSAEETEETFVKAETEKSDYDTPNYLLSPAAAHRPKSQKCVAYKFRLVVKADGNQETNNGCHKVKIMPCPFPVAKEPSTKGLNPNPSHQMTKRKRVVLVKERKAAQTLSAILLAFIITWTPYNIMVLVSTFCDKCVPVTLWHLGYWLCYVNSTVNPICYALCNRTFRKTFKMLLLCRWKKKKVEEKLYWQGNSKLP
Method in brief: as §1

[5] = molecular target: human M4 receptor (Homo sapiens (Human), UniProt P08173); test: Radioligand (tritiated N-methylscopolamine) binding assay, M4; details: Ki against the M4 receptor; membranes from CHO cells expressing human M4; tritiated N-methylscopolamine 1.5 nM; read-out: Ki
human M4 receptor, sequence (P08173 whole entry): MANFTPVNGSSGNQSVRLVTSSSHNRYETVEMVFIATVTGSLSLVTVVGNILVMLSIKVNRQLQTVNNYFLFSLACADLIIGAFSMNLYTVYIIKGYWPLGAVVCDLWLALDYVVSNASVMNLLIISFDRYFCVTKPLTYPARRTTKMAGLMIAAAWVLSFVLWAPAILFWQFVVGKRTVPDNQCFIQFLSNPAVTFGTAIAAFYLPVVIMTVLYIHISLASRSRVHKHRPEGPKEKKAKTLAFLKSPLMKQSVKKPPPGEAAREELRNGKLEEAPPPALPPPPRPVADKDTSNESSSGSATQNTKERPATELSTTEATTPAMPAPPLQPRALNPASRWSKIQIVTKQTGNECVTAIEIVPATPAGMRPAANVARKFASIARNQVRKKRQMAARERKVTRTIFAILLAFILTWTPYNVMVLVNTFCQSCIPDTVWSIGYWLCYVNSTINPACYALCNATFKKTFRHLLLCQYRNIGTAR
Method in brief: as §1

| SMILES | Ki [1] [nM] | Ki [2] [nM] | Ki [3] [nM] | Ki [4] [nM] | Ki [5] [nM] |
| --- | --- | --- | --- | --- | --- |
| Cc1c(C(=O)NCCC2CCN(Cc3ccccc3)CC2)cnc2cc(-c3cccc(C(F)(F)F)c3)nn12 [17-1, N-[2-(1-benzylpiperidin-4-yl)ethyl]-7-methyl-2-[3-(trifluoromethyl)phenyl]pyrazolo[1,5-a]pyrimidine-6-carboxamide] | > 1000 | 100 to 1000 | > 1000 | > 1000 | < 10 |
| Cc1c(C(=O)NCCC2(O)CCN(Cc3ccccc3)CC2)cnc2cc(-c3cccc(C(F)(F)F)c3)nn12 [17-3, N-[2-(1-benzyl-4-hydroxypiperidin-4-yl)ethyl]-7-methyl-2-[3-(trifluoromethyl)phenyl]pyrazolo[1,5-a]pyrimidine-6-carboxamide] | 100 to 1000 | 100 to 1000 | > 1000 | > 1000 | < 10 |
| Cc1c(C(=O)NC[C@@H](O)C2CCN(Cc3ccccc3)CC2)cnc2cc(-c3cccc(C(F)(F)F)c3)nn12 [17-5, N-[(2S)-2-(1-benzylpiperidin-4-yl)-2-hydroxyethyl]-7-methyl-2-[3-(trifluoromethyl)phenyl]pyrazolo[1,5-a]pyrimidine-6-carboxamide] | 100 to 1000 | 10 to 100 | > 1000 | > 1000 | < 10 |
| Cc1c(C(=O)NC[C@H](O)C2CCN(Cc3ccccc3)CC2)cnc2cc(-c3cccc(C(F)(F)F)c3)nn12 [17-6, N-[(2R)-2-(1-benzylpiperidin-4-yl)-2-hydroxyethyl]-7-methyl-2-[3-(trifluoromethyl)phenyl]pyrazolo[1,5-a]pyrimidine-6-carboxamide] | > 1000 | 100 to 1000 | > 1000 | > 1000 | < 10 |
| Cc1c(C(=O)NCCC2CCN(Cc3ccccc3)CC2)cnc2cc(-c3ccc(F)cc3F)nn12 [18-1, N-[2-(1-benzylpiperidin-4-yl)ethyl]-2-(2,4-difluorophenyl)-7-methyl-pyrazolo[1,5-a]pyrimidine-6-carboxamide] | > 1000 | 10 to 100 | > 1000 | > 1000 | < 10 |
| Cc1c(C(=O)NCCC2CCN(Cc3ccccc3)CC2)cnc2cc(-c3ccc(F)cc3)nn12 [18-4] | 100 to 1000 | 100 to 1000 | > 1000 | > 1000 | < 10 |
| Cc1c(C(=O)NCCC2CCN(Cc3ccccc3)CC2)cnc2cc(-c3cc(F)cc(F)c3)nn12 [18-5] | > 1000 | 100 to 1000 | > 1000 | > 1000 | < 10 |
| Cc1c(C(=O)NCCC2CCN(Cc3ccccc3)CC2)cnc2cc(-c3cccc(OC(F)(F)F)c3)nn12 [18-16] | > 1000 | 100 to 1000 | > 1000 | > 1000 | < 10 |
| Cc1c(C(=O)NCCC2CCN(Cc3ccccc3)CC2)cnc2cc(-c3cc(F)c(F)c(F)c3)nn12 [18-17] | > 1000 | 100 to 1000 | > 1000 | > 1000 | < 10 |
| C[C@H]1CN(c2ncc(C(F)(F)F)cn2)CCC1C(=O)NCCC1CCN(Cc2ccccc2)CC1 (stereo partly drawn) [20-2, (3R)-N-[2-(1-benzylpiperidin-4-yl)ethyl]-3-methyl-1-[5-(trifluoromethyl)pyrimidin-2-yl]piperidine-4-carboxamide] | 10 to 100 | 10 to 100 | 10 to 100 | 100 to 1000 | < 10 |
| C[C@H]1CN(c2ncc(Cl)cn2)CCC1C(=O)NCCC1CCN(Cc2ccccc2)CC1 (stereo partly drawn) [20-3, (3R)-N-[2-(1-benzylpiperidin-4-yl)ethyl]-1-(5-chloropyrimidin-2-yl)-3-methylpiperidine-4-carboxamide] | 100 to 1000 | 100 to 1000 | 100 to 1000 | > 1000 | < 10 |
| C[C@@H]1CN(c2ncc(C#N)cn2)C[C@H](C)N1C(=O)NCCC1CCN(CC[Si](C)(C)C)CC1 [21-7] | 10 to 100 | < 10 | 10 to 100 | 100 to 1000 | < 10 |
| C[C@@H]1CN(c2ccc(C#N)cc2)C[C@H](C)N1C(=O)NCCC1CCN(Cc2ccccc2)CC1 [22-2] | > 1000 | 100 to 1000 | > 1000 | > 1000 | < 10 |
| C[C@@H]1CN(c2ccc(C#N)cc2F)C[C@H](C)N1C(=O)NCCC1CCN(Cc2ccccc2)CC1 [22-3] | > 1000 | 100 to 1000 | > 1000 | > 1000 | < 10 |
| C[C@@H]1CN(c2ccc(C#N)c(F)c2)C[C@H](C)N1C(=O)NCCC1CCN(Cc2ccccc2)CC1 [22-4] | > 1000 | 10 to 100 | > 1000 | > 1000 | < 10 |
| C[C@@H]1CN(c2ncc(F)cc2F)C[C@H](C)N1C(=O)NCCC1CCN(Cc2ccccc2)CC1 [22-5, (2R,6S)-N-[2-(1-benzylpiperidin-4-yl)ethyl]-4-(3,5-difluoropyridin-2-y1)-2,6-dimethylpiperazine-1-carboxamide] | 100 to 1000 | 10 to 100 | > 1000 | 100 to 1000 | < 10 |
| C[C@@H]1CN(c2cc(F)c(F)c(Cl)c2)C[C@H](C)N1C(=O)NCCC1CCN(Cc2ccccc2)CC1 [22-7] | 100 to 1000 | 10 to 100 | 100 to 1000 | 100 to 1000 | < 10 |
| C[C@@H]1CN(c2cnc(Cl)c(F)c2)C[C@H](C)N1C(=O)NCCC1CCN(Cc2ccccc2)CC1 [22-8] | 100 to 1000 | 10 to 100 | > 1000 | > 1000 | < 10 |
| C[C@@H]1CN(c2cc(F)c(C#N)c(F)c2)C[C@H](C)N1C(=O)NCCC1CCN(Cc2ccccc2)CC1 [22-9] | 100 to 1000 | 10 to 100 | > 1000 | > 1000 | < 10 |
| C[C@@H]1CN(c2cc(F)c(C#N)cc2F)CCN1C(=O)NCCC1CCN(Cc2ccccc2)CC1 [22-10] | > 1000 | 100 to 1000 | > 1000 | > 1000 | < 10 |
| C[C@@H]1CN(c2cc(F)c(C#N)c(F)c2)CCN1C(=O)NCCC1CCN(Cc2ccccc2)CC1 [22-12] | > 1000 | 10 to 100 | > 1000 | 100 to 1000 | < 10 |
| C[C@@H]1CN(c2cc(F)c(Cl)c(F)c2)CCN1C(=O)NCCC1CCN(Cc2ccccc2)CC1 [22-13] | 100 to 1000 | 10 to 100 | 100 to 1000 | 100 to 1000 | < 10 |
| C[C@@H]1CN(c2ccc(Cl)c(F)c2)CCN1C(=O)NCCC1CCN(Cc2ccccc2)CC1 [22-14] | 100 to 1000 | 10 to 100 | 100 to 1000 | 100 to 1000 | < 10 |
| C[C@@H]1CN(c2ccc(C#N)c(F)c2)CCN1C(=O)NCCC1CCN(Cc2ccccc2)CC1 [22-15] | 100 to 1000 | 10 to 100 | > 1000 | 100 to 1000 | < 10 |
| C[C@@H]1CN(c2ccc(C#N)c(OC(F)(F)F)c2)CCN1C(=O)NCCC1CCN(Cc2ccccc2)CC1 [22-17] | 100 to 1000 | 10 to 100 | > 1000 | 100 to 1000 | < 10 |
| C[C@@H]1CN(c2cnc(C(F)(F)F)cn2)CCN1C(=O)NCCC1CCN(Cc2ccccc2)CC1 [22-22] | 100 to 1000 | 10 to 100 | > 1000 | > 1000 | < 10 |
